From patent publication US10828372B2, “Compositions and methods for the inhibition of fibrosis” (WISCONSIN ALUMNI RESEARCH FOUNDATION, priority 2017, dated 2020)
Entries after “also recorded” stand apart in the source; their conditions may differ. Where no end group is shown, it is not given here.

How the values were obtained:
[1] = test system: human foreskin fibroblasts, AH1F cells; assay: Cell viability of fibroblast monolayers in matrix assembly assays (Cell Titer-Glo / AlamarBlue); format: cell-based; conditions: for cell viability: doses ranging from 1 to 20 μM
Protocol: Microtiter fibronectin matrix assembly assays: Exogenous plasma fibronectin matrix assembly assay: Binding and incorporation of AlexaFluor® 488-plasma fibronectin (A488-FN) to fibroblast monolayers (human foreskin fibroblasts, AH1F cells was carried out using methods known in the art. Briefly, fibroblasts (60000 per well) were allowed to adhere and spread for 2 hours in microtiter plates in 2% fetal calf serum (FCS)-containing DMEM. Peptides or modulators to be tested were added followed by 28 nM A488-FN. Cell monolayers with or without peptides and A488FN were incubated overnight at 37° C. with 5% CO2. Cell monolayers in microwells were washed with PBS or HBSS containing Ca^2+, Mg^2+. Fluorescence in 96-well plates was read using a microplate reader using bottom-readout capabilities at 485 nm excitation and 525 nm emission with 20 nm bandwidths. To estimate cell viability per well after the washes and measurement of fluorescence, an equal volume of luminescence reagent (Cell Titer-Glo®) was added followed by quantification of luminescence. Fluorescence of wells to which A488FN had not been added, i.e. intrinsic fluorescence of the cell monolayer was subtracted from fluorescence values of wells containing ligand. Data is presented respectively for fibronectin fibrillogenesis or cell viability as percent of fluorescence or luminescence values for wells with no peptides. Microplate microscopy was used to ascertain that fluorescence measurements correspond to fibrillary fibronectin.
Endogenous (cellular) fibronectin assembly assay: This immunochemical assay measures the ECM incorporation of EDA-containing fibronectin synthesized by human fibroblasts and human proximal tubular epithelial cells. Human proximal epithelial cells, HK-2 cells, were obtained from ATCC (CRL-2190). The EDA+ fibronectin is a splice variant synthesized and secreted by a variety of cells mostly during embryonic development and during wound healing, ECM remodeling, or fibrotic conditions in the adult. Fibroblasts (AH1F) were cultured in DMEM (Gibco) containing 10% fetal calf serum, and human proximal tubular epithelial cells (HK-2) were cultured in keratinocyte serum free medium (KSFM, containing pituitary extract and rEGF, Invitrogen/Thermo Fisher). Both media also contained 2.5 mM glutamine, 100 IU/ml penicillin, and 100 μg/ml streptomycin. […] Fluorescence of AlamarBlue® was read at 555 nm excitation and 585 nm emission. […] Similar to the measurement of exogenous A488-FN fluorescence, A488-EDA fluorescence was read using microplate reader equipped with bottom-readout capabilities at 485 nm excitation and 525 nm emission. […]

UUO kidneys = assay: Unilateral Ureteral Obstruction (UUO) model of kidney fibrosis; format: in vivo, mouse; conditions: for decrease in CD45 staining (leukocyte infiltration) / decrease in collagens (picrosirius red birefringence): UUO kidney sections; for decrease of fibronectin deposition (immunohistochemistry): UUO kidneys, s.c. 0.3 mg per day, day 3 to day 9, vs saline; for qualitative H&E histology of UUO kidneys: compared to saline
Text: Unilateral Ureteral Obstruction model. […] All efforts were made to minimize suffering. […] PEGylated peptide equivalent amounts were based on peptide concentration.
Thus, the right, contralateral, kidney of each mouse was utilized as a control to the left UUO-treated kidney. The data from two cohorts of UUO-treated mice were combined for this study composed of the following groups (n): saline (n=5), PEG (n=4), FUD (n=5), PEG-FUD (n=8) and PEG-mFUD (n=3).
Histology and immunostaining: Paraffin-embedded tissues were sectioned at 4 μm and stained with H&E and Picrosirius Red, and IHC for fibronectin and CD45 for leukocytes. […] Staining for fibronectin was carried out using a rabbit polyclonal antibody to mouse fibronectin (RamFN) which was described in the art. RamFN diluted at 1:5000 required prior proteinase K antigen retrieval and was developed with ImmPRESS Rabbit Ig HRP. Staining for leukocytes was carried out using the pan leukocyte antibody rat anti-mouse CD45 (Leukocyte Common antigen, Ly-5, BD Pharmingen, clone 30-F11) at 1:100 after citrate pH 6.0 antigen retrieval and developed with ImmPRESS rat Ig HRP. RamFN and CD45 staining was counter stained with hematoxylin to demarcate nuclei.
Stained tissue sections were imaged using the 20× objective on an upright brightfield Nikon Eclipse 600 microscope. This microscope was also equipped with polarizer capabilities utilized to assess the birefringence of the picrosirius red-stained collagen fibers. Quantitation of birefringence or DAB product following development of HRP stains was carried out using Image J (Sun Microsystems.Ink) from 6 images from each mouse section obtained at random within the central cortical area and excluding large blood vessels and the kidney capsule.

Substance	cell viability [1]	decrease in fibroblast viability ([1]; highest concentration tested (500 nM))	decrease in CD45 staining (leukocyte infiltration) (UUO kidneys)	decrease in collagens (picrosirius red birefringence) (UUO kidneys)	decrease of fibronectin deposition (immunohistochemistry) (UUO kidneys)	qualitative H&E histology of UUO kidneys (UUO kidneys)	fibroblast viability ([1]; doses up to 500 nM)
FUD: 49 amino acid FUD peptide, SEQ ID NO: 1, recombinantly expressed, His-tag removed; inhibitor of fibronectin fibrillogenesis (KDQSPLAGESGETEYITEVYGNQQNPVDIDKKLPNETGFSGNMVETEDT; human) [reference compound]	80%	approximately 20%	approximately 50%	about 50%	40%	greater eosinophilic staining	
PEG-FUD: PEGylated FUD prepared as in Example 1, PEG size not stated; approximately 27 kDa by mass spectrometry, likely the 20 kDa conjugate (KDQSPLAGESGETEYITEVYGNQQNPVDIDKKLPNETGFSGNMVETEDT; not fully specified (N-terminus); also: PEG size not given here)	80%		approximately 50%	about 50%	70%	greater eosinophilic staining; also recorded: clearer tubular preservation and vascularized glomeruli	approximately 100%
